Assay results taken from PubChem BioAssay AID330 (DTP/NCI, 2004).
Where “and” joins values, the source holds several entries; their conditions need not be identical. Identical values can stand only once. Toxic doses and inconclusive results are not listed. How the source made its calls: active means survival T/C of 150% or more; inactive means T/C below 125% in these data.

Test system: P388 leukemia ip, CD2F1 mice, survival T/C
Test: NCI In Vivo Anticancer Drug Screen. Data for tumor model P388 Leukemia (intraperitoneal) in CD2F1 (CDF1) mice
Conditions: endpoint: median survival time, higher = longer survival
How it was run: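 Mice carrying the transplanted tumor received test compound or vehicle. Survival was recorded in each group, and the value is the treated-group measurement divided by that of the vehicle-treated control group.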

[1] = dose: 6.25 mg/kg/injection, schedule: Q04DX003 (ip), vehicle: saline with Tween-80
[2] = dose: 12.5 mg/kg/injection, schedule: Q04DX003 (ip), vehicle: saline with Tween-80
[3] = dose: 25.0 mg/kg/injection, schedule: Q04DX003 (ip), vehicle: saline with Tween-80

Measured: T/C

N#CC(c1ccccc1)c1nccc2ccccc12 (stereo unspecified)
inactive: dose: 100.0 mg/kg/injection, schedule: Q04DX002 (ip), vehicle: saline with Tween-80 99 % of control | dose: 200.0 mg/kg/injection, schedule: Q04DX002 (ip), vehicle: saline with Tween-80 100 % of control

Oc1ccc(C(c2cc3c(cc2O)OCO3)N2CCN(C(c3ccc(O)cc3)c3cc4c(cc3O)OCO4)CC2)cc1 (stereo unspecified)
inactive: dose: 60.0 mg/kg/injection, schedule: Q01DX005 (ip), vehicle: Klucel (hydroxypropylcellulose) (HPC) 104 % of control | dose: 120.0 mg/kg/injection, schedule: Q01DX005 (ip), vehicle: Klucel (hydroxypropylcellulose) (HPC) 103 % of control | dose: 240.0 mg/kg/injection, schedule: Q01DX005 (ip), vehicle: Klucel (hydroxypropylcellulose) (HPC) 100 % of control

CC(C)=CCCC(C)(OC1OC(COC2OC(CO)C(O)C(O)C2O)C(O)C(O)C1O)C1CCC2(C)C1C(O)CC1C3(C)CCC(OC4OC(CO)C(O)C(O)C4OC4OC(CO)C(O)C(O)C4O)C(C)(C)C3CCC12C (stereo unspecified)
inactive: dose: 2.0 mg/kg/injection, schedule: Q01DX009 (ip), vehicle: Klucel (hydroxypropylcellulose) (HPC) 102 % of control | dose: 4.0 mg/kg/injection, schedule: Q01DX009 (ip), vehicle: Klucel (hydroxypropylcellulose) (HPC) 95 % of control | dose: 8.0 mg/kg/injection, schedule: Q01DX009 (ip), vehicle: Klucel (hydroxypropylcellulose) (HPC) 98 % of control | dose: 16.0 mg/kg/injection, schedule: Q01DX009 (ip), vehicle: Klucel (hydroxypropylcellulose) (HPC) 93 % of control | dose: 32.0 mg/kg/injection, schedule: Q01DX009 (ip), vehicle: Klucel (hydroxypropylcellulose) (HPC) 88 % of control

C=C(C)C(=NC(C)(C)C)Nc1ccc(Cl)cc1
inactive: dose: 12.5 mg/kg/injection, schedule: Q01DX005 (ip), vehicle: Klucel (hydroxypropylcellulose) (HPC) 104 % of control and 106 % of control | dose: 25.0 mg/kg/injection, schedule: Q01DX005 (ip), vehicle: Klucel (hydroxypropylcellulose) (HPC) 106 % of control and 109 % of control | dose: 25.0 mg/kg/injection, schedule: Q01DX009 (ip), vehicle: saline with Tween-80 98 % of control and 100 % of control | dose: 50.0 mg/kg/injection, schedule: Q01DX005 (ip), vehicle: Klucel (hydroxypropylcellulose) (HPC) 110 % of control and 116 % of control and 123 % of control | dose: 50.0 mg/kg/injection, schedule: Q01DX009 (ip), vehicle: saline with Tween-80 100 % of control and 102 % of control and 109 % of control | dose: 100.0 mg/kg/injection, schedule: Q01DX005 (ip), vehicle: Klucel (hydroxypropylcellulose) (HPC) 112 % of control and 116 % of control and 120 % of control | dose: 100.0 mg/kg/injection, schedule: Q01DX009 (ip), vehicle: saline with Tween-80 109 % of control and 111 % of control and 119 % of control | dose: 200.0 mg/kg/injection, schedule: Q01DX009 (ip), vehicle: saline with Tween-80 118 % of control

CCOC(=O)/C=C(\NC1CC(OC2C[C@](O)(C(C)=O)Cc3c(O)c4c(c(O)c32)C(=O)c2c(OC)cccc2C4=O)OC(C)C1O)C(=O)OCC (stereo partly specified)
inactive: [1] 106 % of control | [2] 113 % of control | [3] 105 % of control | dose: 50.0 mg/kg/injection, schedule: Q04DX003 (ip), vehicle: saline with Tween-80 124 % of control

O=C(C=C(C(F)(F)F)C(F)(F)F)c1cccc([N+](=O)[O-])c1
inactive: [1] 104 % of control | [2] 104 % of control | [3] 100 % of control

Cc1c2cc[n+](CCN3CCCCC3)cc2c(C)c2c1[nH]c1ccc(O)cc12
inactive: dose: 200.0 mg/kg/injection, schedule: Q04DX003 (ip), vehicle: saline 104 % of control | dose: 200.0 mg/kg/injection, schedule: Q04DX003 (ip), vehicle: suspension in saline 98 % of control
active: dose: 1.56 mg/kg/injection, schedule: Q04DX003 (ip), vehicle: suspension in saline 152 % of control | dose: 3.12 mg/kg/injection, schedule: Q04DX003 (ip), vehicle: suspension in saline 152 % of control | dose: 6.25 mg/kg/injection, schedule: Q04DX003 (ip), vehicle: saline 178 % of control and 201 % of control | dose: 12.5 mg/kg/injection, schedule: Q04DX003 (ip), vehicle: saline 178 % of control | dose: 12.5 mg/kg/injection, schedule: Q04DX003 (ip), vehicle: suspension in saline 164 % of control | dose: 25.0 mg/kg/injection, schedule: Q04DX003 (ip), vehicle: saline 190 % of control and 194 % of control | dose: 25.0 mg/kg/injection, schedule: Q04DX003 (ip), vehicle: suspension in saline 164 % of control | dose: 50.0 mg/kg/injection, schedule: Q04DX003 (ip), vehicle: saline 255 % of control | dose: 50.0 mg/kg/injection, schedule: Q04DX003 (ip), vehicle: suspension in saline 152 % of control | dose: 100.0 mg/kg/injection, schedule: Q04DX003 (ip), vehicle: saline 216 % of control | dose: 100.0 mg/kg/injection, schedule: Q04DX003 (ip), vehicle: suspension in saline 169 % of control

COc1cc(OC)cc(C2(C(=O)[C@@H]3OC(C)(C)OC3C)SCCCS2)c1 (stereo partly specified)
inactive: dose: 100.0 mg/kg/injection, schedule: Q01DX001 (ip), vehicle: Klucel (hydroxypropylcellulose) (HPC) 98 % of control | dose: 200.0 mg/kg/injection, schedule: Q01DX001 (ip), vehicle: Klucel (hydroxypropylcellulose) (HPC) 94 % of control | dose: 400.0 mg/kg/injection, schedule: Q01DX001 (ip), vehicle: Klucel (hydroxypropylcellulose) (HPC) 90 % of control
